In BindingDB's records for doi:10.7270/Q2TX3CTT (Broad Institute, 2010) one finds EC50 data, which are given here for 45 molecules.

Where a name gives a salt, the structure may show the parent alone.

The target of this assay is Glycogen synthase kinase-3 beta (Homo sapiens, UniProt P49841). Description: GSK3beta kinase inhibitor potency, dose response, biochemical, luminescence, cell-free homogeneous, retest (AID 434954).
Chain of Glycogen synthase kinase-3 beta (P49841 whole entry): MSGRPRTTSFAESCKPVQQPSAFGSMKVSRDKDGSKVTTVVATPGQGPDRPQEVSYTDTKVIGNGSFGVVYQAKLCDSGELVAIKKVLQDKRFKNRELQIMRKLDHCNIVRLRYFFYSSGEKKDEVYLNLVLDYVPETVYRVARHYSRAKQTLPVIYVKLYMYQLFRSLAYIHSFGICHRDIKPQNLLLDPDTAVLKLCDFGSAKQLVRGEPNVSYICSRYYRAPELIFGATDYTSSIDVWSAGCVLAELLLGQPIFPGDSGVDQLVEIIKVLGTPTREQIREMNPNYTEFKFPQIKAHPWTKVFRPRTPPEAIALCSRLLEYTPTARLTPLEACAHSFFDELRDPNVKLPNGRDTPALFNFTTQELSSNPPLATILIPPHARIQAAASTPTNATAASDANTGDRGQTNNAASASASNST
In turn, `COc1ccc(COC(=O)c2cccc(S(=O)(=O)N3CCN(C(C)=O)CC3)c2)cc1` [(4-methoxyphenyl)methyl 3-(4-acetylpiperazin-1-yl)sulfonylbenzoate] came in with an EC50 greater than 300 µM. To `c1cncc(-c2nc(NCc3ccco3)c3ccccc3n2)c1` [N-(2-furanylmethyl)-2-(3-pyridinyl)-4-quinazolinamine] belongs greater than 300 µM; to `CCOC(=O)c1cnc2ccc(OC)cc2c1NCCc1ccc(OC)c(OC)c1`, greater than 300 µM. To `CCN1CCN(c2c(C(=O)c3ccc(OC)cc3)cnc3ccccc23)CC1` [[4-(4-ethylpiperazin-1-yl)quinolin-3-yl](4-methoxyphenyl)methanone] belongs greater than 300 µM.

Molecule `CCOc1cc(C2Nc3ccccc3N=C3CC(C)(C)CC(=O)C32)ccc1O` (stereo not given) [6-(3-ethoxy-4-hydroxyphenyl)-9,9-dimethyl-6,8,10,11-tetrahydro-5H-benzo[b][1,4]benzodiazepin-7-one] returned a concentration giving a half-maximal response (EC50) greater than 300 µM. The value for `O=C(Nc1ccccc1)Nc1cnccn1` [MLS001229949] was greater than 300 µM; that for `c1ccc(-c2nc(NCCCn3ccnc3)c3ccccc3n2)cc1` [MLS001007021] was 33.6 µM. `CC(C)(C)C(=O)c1cnc(Nc2ccccc2)s1` [1-(2-anilino-1,3-thiazol-5-yl)-2,2-dimethylpropan-1-one]: the EC50 is greater than 300 µM. To `Cc1ccc(/C=C2/Sc3ccc(C(=O)NCCN4CCOCC4)cc3NC2=O)cc1` belongs greater than 300 µM; to `CCOC(=O)CSc1nnc(-c2cccs2)n1-c1ccccc1`, greater than 300 µM. To `O=Cc1ccc(N2CCCC2)c([N+](=O)[O-])c1` [SMR000383989] belongs greater than 300 µM.

In turn, `CCC(C)Nc1nc(N)c([N+](=O)[O-])c(NCCO)n1` (stereo not given) [MLS000332774] registered a concentration for a half-maximal effect (EC50) of 14.7 µM. This counts as double-digit micromolar. The value for `Cn1c(SCC(=O)Nc2ccccc2)nc2ccccc2c1=O` [2-(3-Methyl-4-oxo-3,4-dihydro-quinazolin-2-ylsulfanyl)-N-phenyl-acetamide] was greater than 300 µM; that for `NC(=O)c1ncn([C@@H]2O[C@H](CO)[C@@H](O)[C@H]2O)n1` [Tribavirin] was greater than 300 µM. The molecule `O=C(Nc1ccccc1C(=O)N1CCOCC1)C1CCCO1` (stereo not given) [SMR000077483] gave an EC50 greater than 300 µM. The value for `CC(C)CNc1nc(N)c([N+](=O)[O-])c(NCC2CCCO2)n1` (stereo not given) was 6.1 µM. To `Cc1c(O)ccc2c(-c3ccccc3)cc(=O)oc12` [7-hydroxy-8-methyl-4-phenyl-1-benzopyran-2-one] belongs greater than 300 µM; to `CC[n+]1c(/C=C/C=C/c2ccc(N(C)C)cc2)sc2ccccc21` [SMR000420206], 35.1 µM; to `c1cncc(-c2nc(NCc3ccc4c(c3)OCO4)c3ccccc3n2)c1` [N-(1,3-benzodioxol-5-ylmethyl)-2-(3-pyridinyl)-4-quinazolinamine], greater than 300 µM.

With `O=C(NCc1ccncc1)C1CCC(=O)N(CCc2ccc(Cl)cc2)C1` (stereo not given) [MLS001100847], the EC50 is greater than 300 µM. To `O=C(NN=Cc1ccc2nccnc2c1)c1ccncc1` [N-(quinoxalin-6-ylmethylideneamino)pyridine-4-carboxamide] belongs greater than 300 µM; to `CCN(CCNC(=O)CN(C)S(=O)(=O)c1cccc2nsnc12)c1ccccc1`, greater than 300 µM. Take `CCCCC(=O)Nc1nn(CC(C)C)c2nc3ccccc3cc12` [SMR000043369]: the EC50 is greater than 300 µM. The value for `CCn1c(SCC(=O)Nc2ccc(NC(C)=O)cc2)nnc1C1CC1` [N-(4-acetamidophenyl)-2-[(5-cyclopropyl-4-ethyl-1,2,4-triazol-3-yl)sulfanyl]ethanamide] was greater than 300 µM; that for `COc1ccc2occ(C(=O)c3ccc(N)cc3)c2c1` [SMR000539215] was 14.7 µM; that for `COc1ccc(-c2nn(-c3ccccc3)cc2CO)cc1` [MLS000534260] was greater than 300 µM. To `C[C@@H]1O[C@@H](OC[C@H]2O[C@@H](Oc3c(-c4ccc(O)c(O)c4)oc4cc(O)cc(O)c4c3=O)[C@H](O)[C@@H](O)[C@@H]2O)[C@H](O)[C@H](O)[C@H]1O` [3-Rhamnoglucosylquercetin] belongs 28 µM; to `Nc1nc(Nc2ccccc2)nc(NCCO)c1[N+](=O)[O-]` [2-(6-Amino-5-nitro-2-phenylamino-pyrimidin-4-ylamino)-ethanol], 5.77 µM.

In turn, `COc1ccc(C(=O)c2coc3ccc(O)c(CN4CCCC4)c23)cc1` [[5-hydroxy-4-(1-pyrrolidinylmethyl)-3-benzofuranyl]-(4-methoxyphenyl)methanone] registered an EC50 greater than 300 µM.

In the case of `O=C(COC(=O)C1CCN(S(=O)(=O)c2ccccc2)CC1)NC(=O)c1ccc(OC(F)F)cc1` [MLS000394677], the EC50 is greater than 300 µM. Take `CC(C)Nc1nnc(SCC(=O)NCc2ccc3c(c2)OCO3)s1` [SMR000375706]: the concentration giving a half-maximal response (EC50) is greater than 300 µM. The value for `O=C1CCCC2=Nc3ccccc3NC(c3cccs3)C12` (stereo not given) [6-thiophen-2-yl-5,6,8,9,10,11-hexahydrobenzo[b][1,4]benzodiazepin-7-one] was greater than 300 µM; that for `COc1ccccc1C=NNC(=O)c1nnn(-c2nonc2N)c1CN(C)c1ccccc1` [1-(4-amino-1,2,5-oxadiazol-3-yl)-N-[(2-methoxyphenyl)methylideneamino]-5-[(N-methylanilino)methyl]triazole-4-carboxamide] was 4.14 µM. Consider `CNC(=O)c1ccccc1NC(=O)c1cccc(S(=O)(=O)N2CCC(C)CC2)c1` [N-methyl-2-({3-[(4-methylpiperidin-1-yl)sulfonyl]benzoyl}amino)benzamide], for which the EC50 was greater than 300 µM. The value for `O=C(O)c1ccc(CN=Nc2ccc(C(F)(F)F)cn2)cc1` was 20.4 µM; that for `COC(=O)c1nnn(-c2nonc2N)c1CSCCO` [1-(4-amino-1,2,5-oxadiazol-3-yl)-5-[(2-hydroxyethylthio)methyl]-4-triazolecarboxylic acid methyl ester] was 6.22 µM. The value for `CC(C(=O)NCc1ccccc1)n1cc([N+](=O)[O-])cn1` (stereo not given) [SMR000559338] was greater than 300 µM; that for `OC(COc1ccc(OCC(O)CN2CCN(Cc3ccccc3)CC2)cc1)CN1CCN(Cc2ccccc2)CC1` (stereo not given) [SMR000473226] was greater than 300 µM; that for `COc1ccccc1-c1ccc(=O)n(CC(=O)NCc2ccco2)n1` [N-(furan-2-ylmethyl)-2-[3-(2-methoxyphenyl)-6-oxidanylidene-pyridazin-1-yl]ethanamide] was greater than 300 µM. In turn, `CCOc1cc(C2c3c(n[nH]c3C)N=C3CC(C)(C)CC(=O)C32)ccc1O` (stereo not given) [MLS000736418] came in with an EC50 of 3.32 µM. The value for `O=C(O)CSCC(=O)NCc1c(Cl)cccc1Oc1ccccc1` was greater than 300 µM; that for `CCC(C)Nc1nc(N)c([N+](=O)[O-])c(NC2CCCCC2)n1` (stereo not given) [SMR000540397] was 2.39 µM. To `Cc1ccc(-c2nnc3ccc(SC(C)C(=O)O)nn23)cc1` (stereo not given) [2-[[3-(4-methylphenyl)-[1,2,4]triazolo[4,3-b]pyridazin-6-yl]sulfanyl]propanoic acid] belongs 34.2 µM; to `COc1ccc(OC)c(C(=O)c2coc3ccc(O)c(CN(C)C)c23)c1` [(2,5-dimethoxyphenyl)-[4-[(dimethylamino)methyl]-5-oxidanyl-1-benzofuran-3-yl]methanone;hydrochloride], greater than 300 µM; to `COc1ccc(Nc2nc(NCC3CCCO3)nc(N)c2[N+](=O)[O-])cc1` (stereo not given) [N'-(4-Methoxy-phenyl)-5-nitro-N-(tetrahydro-furan-2-ylmethyl)-pyrimidine-2,4,6-triamine], greater than 300 µM.

As a reminder, the EC50 is the concentration at which the effect is half-maximal. Read a high EC50 as weaker potency.
